Results taken from patent publication US5681685A, “Photopolymerizable composition containing squarylium compound” (Kyowa Hakko Kogyo Co., Ltd., priority 1994, dated 1997).

How the values were obtained:
[1] = Degraded rate of squarylium compound in photosensitive resin solution with 2,4,6-tris(trichloromethyl)-s-triazine (Example 7); type: physicochemical; conditions: 40° C., 3 days, light-screened, ethyl cellosolve, relative to Compound (A)
Method: (§1) 0.5 g of pentaerythritol triacrylate, 0.5 g of butyl methacrylate/acrylic acid copolymer (weight-average molecular weight 3,100, copolymerization ratio 66/34), 60 mg of 2,4,6-tris(trichloromethyl)-s-triazine and 2 mg of a squarylium compound were dissolved in ethyl cellosolve to 25 ml to give a photosensitive resin solution. This solution was light-screened and allowed to stand at 40° C. for 3 days. The absorbance at the maximum absorption wavelength present in 600 to 700 nm was measured with a spectrophotometer before (A1) and after (A2) being allowed to stand. The degraded rate of the squarylium compound was obtained according to the following equation:
(§2) Degraded rate (%)=(A1-A2)/A1 ×100
The degraded rates of squarylium Compounds 1 to 9 are shown as a relative value based on the degraded rate of Compound (A) in Table 5.

[2] = Degraded rate of squarylium compound in photosensitive resin solution with iron(II) hexafluorophosphate complex (Example 8); type: physicochemical; set-up: key: degraded rate relative to that of Compound (A); conditions: 40° C., 32 days, light-screened, ethyl cellosolve, relative to Compound (A)
Method: as §1, §2
0.5 g of pentaerythritol triacrylate, 60 mg of polymethyl methacrylate (manufactured by Aldrich; weight-average molecular weight 12,000), 90 mg of (.eta.^6 -benzene)(.eta.^5 cyclopentadienyl)iron(II) hexafluorophosphate and 2 mg of a squarylium compound were dissolved in ethyl cellosolve to 25 ml to give a photosensitive resin solution. Thereafter, the same procedures as those in Example 7 were repeated except that a time for being allowed to stand of 3 days was replaced with that of 32 days to give the degraded rate of the squarylium compound. The degraded rate of squarylium Compounds 1 to 9 are shown as a relative value based on the degraded rate of Compound (A) in Table 6.

[3] = Sensitivity of photosensitive layer with 2,4,6-tris(trichloromethyl)-s-triazine (Example 9); conditions: energy necessary for hardening, s-triazine radical generator
From the text: (§3) 100 parts of pentaerythritol triacrylate, 100 parts of polymethacrylate polymer [synthesized according to the methods described in Jikkenkagakukoza, Maruzen K. K., 4th edition, volume 28, page 121, 1992; Kobunshigosei no Jikkenho (Experimental method for polymer synthesis), Kagakudojin K. K., coauthored by Takayuki Otsu and Masaetsu Kinoshita, page 138, 1972; average molecular weight 150,000; methyl ester/isobutyl ester/cyclohexyl ester/free carboxylic acid=27/36/25/12], 7.9 parts of 2,4,6-tris(trichloromethyl)-s-triazine and 1 part of a squarylium compound were dissolved in 1900 parts of ethyl cellosolve to give a photosensitive resin solution. This photosensitive solution was spin-coated on an aluminium plate treated with grinding and anodic oxidation, at 1000 rpm so that the dry-state thickness became 2 μm. On this, a 10% aqueous polyvinyl alcohol (Kurarey Poval 706) solution was spin-coated at 1500 rpm so that the dry-state thickness became 1 μm to give a over-coat layer. A step tablet was piled closely on the resulting photosensitive layer, and the rays having the wavelength around 630, 650 or 680 nm were irradiated from 3kw ultra-high pressure mercury lamp through a glass filter. The rays having the wavelength around 630 nm (155 μJ/cm^2 ·s) were obtained by passing the rays from the above mercury lamp through a colored glass filter R-61, an interference filter KL-63 (both were manufactured by Toshiba Glass Co., Ltd.) and a heat rays absorbing filter HA-30 (manufactured by HOYA Corporation), the rays having the wavelength around 650 nm (177 μJ/cm^2 ·s) were obtained by passing the rays from the above mercury lamp through a colored glass filter R-63, an interference filter KL-65 (both were manufactured by Toshiba Glass Co., Ltd.) and HA-30 and the rays having the wavelength around 680 nm (88 μJ/cm^2 ·s) were obtained by passing the rays from the above mercury lamp through a glass filter R-66, an interference filter KL-68 (both were manufactured by Toshiba Glass Co., Ltd.) and HA-30. Then, the development was carried out with a PS plate developer DN3C (manufactured by Fujiphoto Film Co., Ltd.) diluted 1.5-folds with distilled water, an ink was attached thereon with a PS plate developing ink PI-2 (manufactured by Fujiphoto Film Co., Ltd.) and the sensitivity was scored by obtaining an energy amount necessary for hardening from hardening step number with an ink attached thereto.

[4] = Sensitivity of photosensitive layer with iron(II) hexafluorophosphate complex and CARBOSET XL-44 (Example 10); conditions: 630 nm; iron(II) hexafluorophosphate complex, CARBOSET XL-44
From the text: as §3
The sensitivity when the rays having the wavelength around 630 nm were irradiated was obtained by repeating the same procedures as those in Example 9 except that 8 parts of (.eta.^6 -benzene) (.eta.^5 -cyclopentadienyl)iron(II) hexafluorophosphate was used in place of 7.9 parts of 2,4,6-tris(trichloromethyl)-s-triazine and CARBOSET,XL-44 (manufactured by BF Goodrich) was used in place of polymethacrylate polymer (methyl ester/isobutyl ester/cyclohexyl ester/free carboxylic acid=27/36/25/12).

[5] = Sensitivity of photosensitive layer with 3,3',4,4'-tetrakis(tert-butyldioxycarbonyl)benzophenone (Example 11); conditions: 630 nm
From the text: as §3
The sensitivity when the rays having the wavelength around 630 nm were irradiated was obtained by repeating the same procedures as those of Example 9 except that 8 parts of 3,3',4,4'-tetrakis(tert-butyldioxycarbonyl)benzophenone was used in place of 7.9 parts of 2,4,6-tris(tichloromethyl)-s-triazine.

[6] = disclosed in JP-A 63-138345, JP-A 63-142346, JP-A 2-48665; cited from earlier work
[7] = background statement; cited from earlier work
[8] = in the dark, light screened; background statement; cited from earlier work
[9] = Optical absorption property in chloroform; type: physicochemical; conditions: solvent chloroform

Structure (SMILES)	Relative value of degraded rate [1]	Relative value of degraded rate [2]	logε [9]	λ max [9]	Sensitivity ([3]; 630 nm)	Sensitivity ([3]; 650 nm)	Sensitivity ([3]; 680 nm)	Sensitivity [4]	Sensitivity [5]	maximum absorption wavelength [6]	solubility in an organic solvent or a monomer [7]	degradation in photosensitizer solution [8]
CCCCN1C(=CC2=C([O-])C(=CC3=[N+](CCCC)c4ccc5ccccc5c4C3(C)C)C2=O)C(C)(C)c2c1ccc1ccccc21 [Compound 7]	0.31	0.56			0.47 mJ/cm^2	0.40 mJ/cm^2	0.37 mJ/cm^2	5.8 mJ/cm^2	0.20 mJ/cm^2			
CN1C(=CC2=C([O-])C(=CC3=[N+](C)c4ccc5ccccc5c4C3(C)C)C2=O)C(C)(C)c2c1ccc1ccccc21 [A, reference compound]	1.0	1.0			0.91 mJ/cm^2	0.56 mJ/cm^2	0.65 mJ/cm^2	11 mJ/cm^2	0.43 mJ/cm^2	673 nm	low solubility	easily degraded in the dark
CCCN1C(=CC2=C([O-])C(=CC3=[N+](CCC)c4ccc5ccccc5c4C3(C)C)C2=O)C(C)(C)c2c1ccc1ccccc21 [Compound 2]	0.25	0.48	5.5	667 nm	0.47 mJ/cm^2	0.40 mJ/cm^2	0.37 mJ/cm^2					
CCCCCN1C(=CC2=C([O-])C(=CC3=[N+](CCCCC)c4ccc5ccccc5c4C3(C)C)C2=O)C(C)(C)c2c1ccc1ccccc21 [Compound 6]	0.28	0.46	5.5	667 nm	0.56 mJ/cm^2	0.40 mJ/cm^2	0.37 mJ/cm^2	5.8 mJ/cm^2	0.099 mJ/cm^2			
CCCCN1C(=CC2=C([O-])C(=CC3=[N+](CCCC)c4ccc5ccccc5c4C3(C)C)C2=O)C(C)(C)c2c1ccc1ccccc21 [Compound 4]	0.29	0.60			0.39 mJ/cm^2	0.40 mJ/cm^2	0.37 mJ/cm^2					
CC(C)N1C(=CC2=C([O-])C(=CC3=[N+](C(C)C)c4ccc5ccccc5c4C3(C)C)C2=O)C(C)(C)c2c1ccc1ccccc21 [Compound 3]	0.24	0.44	5.5	666 nm	0.39 mJ/cm^2	0.40 mJ/cm^2	0.26 mJ/cm^2		0.083 mJ/cm^2			

Second part, led by results:

Relative value of degraded rate [1]	Relative value of degraded rate [2]	logε [9]	λ max [9]	Structure (SMILES)	Sensitivity ([3]; 630 nm)	Sensitivity ([3]; 650 nm)	Sensitivity ([3]; 680 nm)	Sensitivity [4]	Sensitivity [5]	maximum absorption wavelength [6]	solubility in an organic solvent or a monomer [7]	degradation in photosensitizer solution [8]
0.34	0.51			CCN1C(=CC2=C([O-])C(=CC3=[N+](CC)c4ccc5ccccc5c4C3(C)C)C2=O)C(C)(C)c2c1ccc1ccccc21 [Compound 1]	0.47 mJ/cm^2	0.40 mJ/cm^2	0.37 mJ/cm^2					
0.15	0.42	5.5	669 nm	CC(C)CN1C(=CC2=C([O-])C(=CC3=[N+](CC(C)C)c4ccc5ccccc5c4C3(C)C)C2=O)C(C)(C)c2c1ccc1ccccc21 [Compound 5]	0.47 mJ/cm^2	0.56 mJ/cm^2	0.28 mJ/cm^2	11 mJ/cm^2	0.20 mJ/cm^2			
0.26	0.52	5.5	668 nm	CCCCCCN1C(=CC2=C([O-])C(=CC3=[N+](CCCCCC)c4ccc5ccccc5c4C3(C)C)C2=O)C(C)(C)c2c1ccc1ccccc21 [Compound 9]				8.7 mJ/cm^2	0.17 mJ/cm^2			
0.32	0.43	5.5	667 nm	CC(C)CCN1C(=CC2=C([O-])C(=CC3=[N+](CCC(C)C)c4ccc5ccccc5c4C3(C)C)C2=O)C(C)(C)c2c1ccc1ccccc21 [Compound 8]								
